Experimental data as given in patent US9107940B2, “Compositions and methods for treating and preventing skeletal muscle deficiencies” (The Regents of the University of Michigan, priority 2007, dated 2015).

Key:
[1] = system: mdx lumbrical (LMB) muscles; experiment: Isometric contraction protocol (20 contractions) inducing force deficit in isolated lumbrical muscles in vitro; set-up: species or system mouse
Text: Specific-pathogen-free male mdx mice (C57BL/10ScSn-mdx stock #001801) 2-3 months of age and wild type (WT) C57BL/10 mice 2-5 months of age were obtained from the Jackson Laboratory (Bar Harbor, Me.). Mice were housed in a specific-pathogen-free barrier facility. All experimental procedures were in accordance with the Guide for the Care and Use of Laboratory Animals [DHHS Publication No. 85-23 (NIH), Revised 1985, Office of Science and Health Reports, Bethesda, Md. 20892].
Mice were anesthetized with an intraperitoneal injection of Avertin (tribromoethanol 400 mg/kg). Supplemental doses of Avertin were administered as required to keep the mouse unresponsive to tactile stimuli. The front paws of the mouse were severed and the LMB muscles dissected free from the second digit. The LMB muscles were selected for their extremely small size that ensured all fibres were accessible to externally applied compounds. Based on physical dimensions, LMB muscle mass was estimated to be approximately 0.7 mg. Dissections were performed in a chilled bathing solution, composition in mM: 137 NaCl, 11.9 NaHCO3, 5.0 KCl, 1.8 CaCl2, 0.5 MgCl2, 0.4 NaH2PO4. The isolated LMB muscle was mounted horizontally in a custom-fabricated chamber with the distal tendon attached to a force transducer (Aurora Scientific, Inc., modified Model 400A) and the proximal tendon attached to a servomotor (Aurora Scientific, Inc., Model 318B) by ties composed of 10-0 monofilament nylon suture. Bath temperature was maintained at 25° C. and the chamber was perfused continuously with Tyrode solution (composition in mM: 121 NaCl, 24 NaHCO3, 5.0 KCl, 1.8 CaCl2, 0.5 MgCl2, 0.4 NaH2PO4) maintained at pH 7.3 by bubbling with a 95%/5% O2/CO2 mixture.
Muscles were stimulated electrically by current passed between two platinum electrodes. […] Optimum length (Lo) of the muscle was determined by adjusting its length until maximum twitch force was attained. […]
Data are presented as a mean value±SE. […] When ANOVA was used and significance detected, the Student-Newman-Keuls post hoc comparison was used to assess pairwise differences.

WT muscles = conditions: P188 1 mM or streptomycin 200 μM
Experimental: LMB muscles from WT mice, termed WT muscles, were divided into two groups. One group was exposed to normal Tyrode solution and the other group to a calcium-free Tyrode solution. […] For all treatments, muscles were allowed to incubate in the chamber for 15 minutes prior to commencement of the contraction protocol. […] For calcium-free experiments, CaCl2 was omitted from the Tyrode solution and MgCl2 was increased to 2.3 mM to maintain the concentration of divalent ions.

SMILES: [H]/N=C(/N)N[C@H]1[C@H](O)[C@@H](O)[C@H](O[C@@H]2O[C@@H](C)[C@](O)(C=O)[C@H]2O[C@@H]2O[C@@H](CO)[C@H](O)[C@@H](O)[C@@H]2NC)[C@@H](N/C(N)=N\[H])[C@@H]1O [streptomycin]
- influence on absolute Po ([1]; mdx LMB muscles, P188 1 mM, streptomycin 200 μM): did not influence
- force generated at the end of the contraction protocol (post-protocol normalized Po) ([1]; mdx LMB muscles, P188 1 mM, streptomycin 200 μM in Tyrode, 15 min incubation, untreated mdx 69% of Po): 84 % of Po
- contraction-induced force deficit (effect in words) ([1]; whole mdx skeletal muscle): equally effective in reducing the contraction-induced force deficit
- toxicity to the muscle (WT muscles): not toxic
